According to patent publication US9133207B2, “Tetrandrine derivatives with substituted 5-carbon, preparation method and use thereof” (Hangzhou Bensheng Pharmaceutical Co., Ltd., priority 2011, dated 2015):
In brackets after ≈: the same amount, converted by molar mass.

Assays:
[1] = tested on: RPMI8226 (multiple myeloma); assay: Multiple myeloma cell growth inhibition, MTT, 72 h (Example 6); format: cell-based, human; settings: Homo sapiens, RPMI-8226; 72 h, MTT, RPMI8226
Outline: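 Viability was read by MTT after 72 h of compound exposure at 37 °C, 5% CO2. Each well held 6000 RPMI8226 cells in 1640 medium containing 10% fetal bovine serum, with derivatives added at various concentrations.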

[2] = tested on: U87 MG (malignant glioma cell); assay: Solid tumor cell growth inhibition, MTT, 72 h (Example 7); format: cell-based; settings: Homo sapiens, U-87 MG
Outline: (§1)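 Cell viability was quantified by MTT 72 h after adding derivatives at different concentrations to 4000 cells/well. Untreated cells served as the 100% reference.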

[3] = tested on: A549 (human lung cancer); assay: as above; format: cell-based; settings: Homo sapiens; 72 h, MTT, A549
Outline: as §1

[4] = tested on: RKO (human colon adenocarcinoma cell); assay: as above; format: cell-based; settings: Homo sapiens; 72 h, MTT, RKO
Outline: as §1

[5] = tested on: Huh7 (human liver cancer cell); assay: as above; format: cell-based; settings: Homo sapiens; 72 h, MTT, Huh-7
Outline: as §1

[6] = tested on: MGC 803 (human gastric cancer cell); assay: as above; format: cell-based; settings: Homo sapiens
Outline: as §1

[7] = tested on: Becap37 (human breast cancer cell); assay: as above; format: cell-based; settings: Homo sapiens; 72 h, MTT, Becap-37
Outline: as §1

[8] = tested on: CNE (nasopharyngeal carcinoma cell); assay: as above; format: cell-based; settings: Homo sapiens
Outline: as §1

[9] = tested on: SK-OV-3 (ovarian cancer cell); assay: as above; format: cell-based; settings: Homo sapiens
Outline: as §1

[10] = tested on: Hela (human cervical cancer cell); assay: as above; format: cell-based; settings: Homo sapiens; 72 h, MTT, Hela
Outline: as §1

[11] = tested on: CaES-17 (esophageal cancer cell); assay: as above; format: cell-based, human; settings: Homo sapiens, CaEs17; 72 h, MTT, CAES-17
Outline: as §1

[12] = tested on: MG63 (osteosarcoma); assay: as above; format: cell-based, human; settings: Homo sapiens; 72 h, MTT, MG-63
Outline: as §1

[13] = tested on: Hep-2 (laryngeal carcinoma); assay: as above; format: cell-based, human; settings: Homo sapiens; 72 h, MTT, Hep 2
Outline: as §1

[14] = tested on: PANC-1 (pancreatic cancer); assay: as above; format: cell-based, human; settings: Homo sapiens; 72 h, MTT, PANC-1
Outline: as §1

[15] = tested on: PC-3 (prostate cancer); assay: as above; format: cell-based, human; settings: Homo sapiens; 72 h, MTT, PC-3
Outline: as §1

[16] = tested on: H9 (acute lymphoblastic leukemia, ALL); assay: Leukemia cell growth inhibition, MTT, 72 h (Example 5); format: cell-based, human; settings: Homo sapiens; 72 h, MTT
Outline: (§2)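 An MTT read-out of viable cell concentration follows 72 h incubation (37° C, 5% CO2) of 6000 cells/well in 10% FBS-supplemented 1640 medium with the 5-substituted derivatives at varying concentrations.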

[17] = tested on: Jurkat (acute lymphoblastic leukemia, ALL); assay: as above; format: cell-based, human; settings: Homo sapiens, Jurkat; 72 h, MTT
Outline: as §2

[18] = tested on: NB4 (acute promyelocytic leukemia, AML); assay: as above; format: cell-based, human; settings: Homo sapiens; 72 h, MTT
Outline: as §2

[19] = tested on: Kasumi-1 (acute myeloid leukemia M2 type, AML-M2); assay: as above; format: cell-based, human; settings: Homo sapiens, Kasumi 1
Outline: as §2

[20] = tested on: K562/adr (drug-resistant, chronic myeloid leukemia, CML); assay: as above; format: cell-based, human; settings: Homo sapiens, K562/Adr; 72 h, MTT
Outline: as §2

| Structure (SMILES) | IC50 [1] | IC90 [1] | IC50 [2] | IC90 [2] | IC50 [3] | IC90 [3] | IC50 [4] | IC90 [4] | IC50 [5] | IC90 [5] | IC50 [6] | IC90 [6] | IC50 [7] | IC90 [7] | IC50 [8] | IC90 [8] | IC50 [9] | IC90 [9] | IC50 [10] | IC90 [10] | further results |
| --- | --- | --- | --- | --- | --- | --- | --- | --- | --- | --- | --- | --- | --- | --- | --- | --- | --- | --- | --- | --- | --- |
| COc1ccc2cc1Oc1ccc(cc1)C[C@H]1c3cc(c(OC)cc3CCN1C)Oc1c(OC)c(OC)c(CN3CCCC(CO)C3)c3c1[C@H](C2)N(C)CC3 (some centres unmarked) [BS-TE-351] | 0.09 µg/mL (≈ 0.12 µM) | 2.43 µg/mL (≈ 3.24 µM) | 0.28 µg/mL (≈ 0.373 µM) | 0.67 µg/mL (≈ 0.893 µM) | 3.9 µg/mL (≈ 5.2 µM) | 16 µg/mL (≈ 21.3 µM) | 0.45 µg/mL (≈ 0.6 µM) | 1.25 µg/mL (≈ 1.67 µM) | 1.3 µg/mL (≈ 1.73 µM) | 2.41 µg/mL (≈ 3.21 µM) | 1.49 µg/mL (≈ 1.99 µM) | 7.42 µg/mL (≈ 9.89 µM) | 1.08 µg/mL (≈ 1.44 µM) | 4.5 µg/mL (≈ 6 µM) | 1.32 µg/mL (≈ 1.76 µM) | 3.84 µg/mL (≈ 5.12 µM) | 3.5 µg/mL (≈ 4.67 µM) | > 16 µg/mL | 1.25 µg/mL (≈ 1.67 µM) | 3.61 µg/mL (≈ 4.81 µM) | IC50 [11]: 1.38 µg/mL (≈ 1.84 µM); IC90 [11]: 8.19 µg/mL (≈ 10.9 µM); IC50 [12]: 1.2 µg/mL (≈ 1.6 µM); IC90 [12]: 2 µg/mL (≈ 2.67 µM); IC50 [13]: 3.07 µg/mL (≈ 4.09 µM); IC90 [13]: 8.13 µg/mL (≈ 10.8 µM); IC50 [14]: 1.87 µg/mL (≈ 2.49 µM); IC90 [14]: 7.79 µg/mL (≈ 10.4 µM); IC50 [15]: 1.82 µg/mL (≈ 2.43 µM); IC90 [15]: 3.32 µg/mL (≈ 4.43 µM); IC50 [16]: 0.72 µg/mL (≈ 0.96 µM); IC90 [16]: 1.58 µg/mL (≈ 2.11 µM); IC50 [17]: 1 µg/mL (≈ 1.33 µM); IC90 [17]: 5.02 µg/mL (≈ 6.69 µM); IC50 [18]: 0.7 µg/mL (≈ 0.933 µM); IC90 [18]: 1.9 µg/mL (≈ 2.53 µM); IC50 [19]: 0.76 µg/mL (≈ 1.01 µM); IC90 [19]: 3.59 µg/mL (≈ 4.79 µM); IC50 [20]: 0.82 µg/mL (≈ 1.09 µM); IC90 [20]: 3.11 µg/mL (≈ 4.15 µM) |
| COc1ccc2cc1Oc1ccc(cc1)C[C@H]1c3cc(c(OC)cc3CCN1C)Oc1c(OC)c(OC)c(COCc3cccnc3)c3c1[C@H](C2)N(C)CC3 [BS-TE-411] | 0.26 µg/mL (≈ 0.35 µM) | 1.35 µg/mL (≈ 1.81 µM) | 1.09 µg/mL (≈ 1.47 µM) | 2.55 µg/mL (≈ 3.43 µM) | 5.5 µg/mL (≈ 7.39 µM) | 15.5 µg/mL (≈ 20.8 µM) | 0.26 µg/mL (≈ 0.35 µM) | 0.6 µg/mL (≈ 0.807 µM) | 1.13 µg/mL (≈ 1.52 µM) | 1.66 µg/mL (≈ 2.23 µM) | 2.15 µg/mL (≈ 2.89 µM) | 9.02 µg/mL (≈ 12.1 µM) | 1.9 µg/mL (≈ 2.55 µM) | 4.9 µg/mL (≈ 6.59 µM) | 1.32 µg/mL (≈ 1.77 µM) | 3.33 µg/mL (≈ 4.48 µM) | 8 µg/mL (≈ 10.8 µM) | > 16 µg/mL | 1.49 µg/mL (≈ 2 µM) | 3.45 µg/mL (≈ 4.64 µM) | IC50 [11]: 2.76 µg/mL (≈ 3.71 µM); IC90 [11]: 11.8 µg/mL (≈ 15.8 µM); IC50 [12]: 1.26 µg/mL (≈ 1.69 µM); IC90 [12]: 3.07 µg/mL (≈ 4.13 µM); IC50 [13]: 2.15 µg/mL (≈ 2.89 µM); IC90 [13]: 5.69 µg/mL (≈ 7.65 µM); IC50 [14]: 2.29 µg/mL (≈ 3.08 µM); IC90 [14]: 8.92 µg/mL (≈ 12 µM); IC50 [15]: 2.41 µg/mL (≈ 3.24 µM); IC90 [15]: 5.56 µg/mL (≈ 7.47 µM); IC50 [16]: 1.23 µg/mL (≈ 1.65 µM); IC90 [16]: 2.5 µg/mL (≈ 3.36 µM); IC50 [17]: 1 µg/mL (≈ 1.34 µM); IC90 [17]: 8.5 µg/mL (≈ 11.4 µM); IC50 [18]: 0.7 µg/mL (≈ 0.941 µM); IC90 [18]: 2.6 µg/mL (≈ 3.5 µM); IC50 [19]: 0.75 µg/mL (≈ 1.01 µM); IC90 [19]: 3.58 µg/mL (≈ 4.81 µM); IC50 [20]: 0.79 µg/mL (≈ 1.06 µM); IC90 [20]: 3.59 µg/mL (≈ 4.83 µM) |
